Test results from patent publication US4109081A, “1-(3,5-Disubstituted-2,4,6-triiodophenyl)-3-(polyhydroxy-alkyl)urea compounds” (Mallinckrodt, Inc., priority 1975, dated 1978).
Values after ≈ are worked out from the molar mass of the structure shown. Like-named read-outs stand apart in the source and are kept apart here.

How the values were obtained:
[1] = aqueous solubility (solubility of the product in water); assay type: physicochemical
Swiss Albino mice [2] = assay: Acute Intravenous Toxicity Studies in Mice; assay type: in vivo, mouse (Swiss Albino, Charles River); settings: lateral tail vein, iodine concentration 28.2%, pH 7.0-7.2, approximately 1 ml./min., seven day observation
Method: (§1) carried out in aqueous solutions of the compounds of Examples IV and V.
Swiss Albino mice (Charles River) were dosed in the lateral tail vein with aqueous solutions of the above-noted iodinated compounds of Examples I, II and III having an iodine concentration of 28.2% with a pH of 7.0-7.2. The solutions were injected at the rate of approximately 1 ml./min. […] The LD50 values were calculated by the method of Litchfield and Wilcoxon (J. of Pharmac. and Exptl. Therap. 96: 99-113, 1949).

Swiss Albino mice [3] = assay: Intracerebral Toxicity in Mice; assay type: in vivo, mouse (Swiss Albino, Charles River); settings: intracerebral injection, seven day observation; Example IV at 4.3% iodine, Example V at 13.3% iodine
Method: as §1
Swiss Albino mice (charles River) were used. Fixed volumes of aqueous solutions of the iodinated compounds were injected intracerebrally via a 27 gauge needle (1/4 inch in length) according to the method of Haley et al. (Br. J. of Pharmac. 12:12-15, 1957). In the case of the compound of Example IV, a solution of the compound having an iodine concentration of 4.3% was employed and in the case of the compound of Example V, a solution of the compound having an iodine concentration of 13.3% was employed. The animals were observed immediately following injections and daily throughout a seven day observation period. The LD50 values were calculated by the method of Litchfield and Wilcoxon (J. of Pharmac. and Exptl. Therap. 96:99-113, 1949).

Sprague-Dawley rats = assay: Intracisternal Toxicity in Rats; assay type: in vivo, rat (Sprague-Dawley, Carworth); settings: two day observation, Example IV at 7.43% iodine, Example V at 13.3% iodine
Excerpt: as §1
Sprague-Dawley (Carworth) rats were used. In the case of the compound of Example IV, a solution of the compound having an iodine concentration of 7.43% was employed and in the case of the compound of Example V, a solution of the compound having an iodine concentration of 13.3% was employed. The method used was a variation of the procedure outlined by Melartin et al. (Invest. Rad. 5: 13-21, 1970). After dosing, the animals were housed individually and observed for immediate reactions and periodically for a two day observation period. The LD50 values were calculated according to the method of Litchfield and Wilcoxon (J. of Pharmac. and Exptl. Therap. 96:99-115, 1949).

dogs = assay: intravenous pyelographic studies in dogs; assay type: in vivo, dog; settings: for visualization of kidneys, ureters and urinary bladder: 140 mg. I/kg., dogs
Method: The compounds of Examples I, II and III were employed in intravenous pyelographic studies carried out in dogs. At a dosage of 140 mg. […] At a dosage of 167 mg.

[4] = water, read-out: solubility of the product in water

COc1c(I)cc(I)c(NC(=O)N(C)C[C@H](O)[C@@H](O)[C@H](O)[C@H](O)CO)c1I [3-[3-methoxy-2,4,6-triiodophenyl]-1-methyl-1-(D-gluco-2,3,4,5,6-pentahydroxyhexyl)urea, reference compound]
solubility ([1]; insufficiently water-soluble for toxicity testing in aqueous solution, read-out: water solubility): < 10 mg/mL

CNC(=O)c1c(I)c(NC(=O)N(C)C[C@H](O)[C@@H](O)[C@H](O)[C@H](O)CO)c(I)c(C(=O)N(C)C)c1I [Example I, 3-[3-(N,N-Dimethylcarbamyl)-2,4,6-triiodo-5-(N-methylcarbamyl)phenyl]-1-methyl-1-(D-gluco-2,3,4,5,6-pentahydroxylhexyl)urea]
solubility [1, 4]: ≥ 1000 mg/mL | LD50 I.V. (Mice) (Swiss Albino mice [2]): 1,878 mg. I/kg. body wt. | LD50 Intracerebral (Mice) (Swiss Albino mice [3]): 1,500 mg. I/kg. body wt. | LD50 Intracisternal (Rats) (Sprague-Dawley rats): 21 mg. I/kg. body wt. | visualization of kidneys, ureters and urinary bladder (dogs; five minutes after injection): good visualization of kidneys, ureters and urinary bladder

CNC(=O)c1c(I)c(NC(=O)N[C@@H](C=O)[C@@H](O)[C@H](O)[C@H](O)CO)c(I)c(N(C)C(C)=O)c1I [Example III, 5-{3-[2-(D-Gluco-2-deoxy-3,4,5,6-tetrahydroxy-1-oxohexyl)]ureido}-2,4,6-triiodo-N-methyl-3-(N-methylacetamido)-benzamide]
solubility [1, 4]: ≥ 1000 mg/mL | LD50 I.V. (Mice) (Swiss Albino mice [2]): 6,800 mg. I/kg. body wt. | LD50 Intracerebral (Mice) (Swiss Albino mice [3]): 1,460 mg. I/kg. body wt. | LD50 Intracisternal (Rats) (Sprague-Dawley rats): < 40 mg. I/kg. body wt. | visualization of the kidneys and ureters (dogs; 167 mg. I/kg., five minutes after injection, dog): better visualization of the kidneys with some visualization of the ureters | visualization of the kidney (dogs; 167 mg. I/kg., one minute after injection, dog): a shadow of the kidney

CNC(=O)c1c(I)c(NC(=O)N[C@@H](C=O)[C@@H](O)[C@H](O)[C@H](O)CO)c(I)c(C(=O)N(C)C)c1I [Example II]
solubility [1, 4]: ≥ 1000 mg/mL | LD50 I.V. (Mice) (Swiss Albino mice [2]): 4,817 mg. I/kg. body wt. | LD50 Intracerebral (Mice) (Swiss Albino mice [3]): 1,720 mg. I/kg. body wt. | LD50 Intracisternal (Rats) (Sprague-Dawley rats): 17 mg. I/kg. body wt. | visualization of kidneys, ureters and urinary bladder (dogs; five minutes after injection): good visualization of kidneys, ureters and urinary bladder

CNC(=O)c1c(I)c(NC(C)=O)c(I)c(NC(=O)N[C@@H](C=O)[C@@H](O)[C@H](O)[C@H](O)CO)c1I [Example IV]
solubility [1, 4]: 180 to 200 mg/mL (≈ 228 to 253 mM) | LD50 Intracerebral (Mice) (Swiss Albino mice [3]): > 350 mg. I/kg. body wt. | LD50 Intracisternal (Rats) (Sprague-Dawley rats): 62 mg. I/kg. body wt.

CNC(=O)c1c(I)c(NC(=O)N[C@@H](C=O)[C@@H](O)[C@H](O)[C@H](O)CO)c(I)c(C(=O)NC)c1I [Example V, 5-{3-[2-(D-gluco-2-deoxy-3,4,5,6-tetrahydroxy-1-oxohexyl)]ureido}-2,4,6-tri-iodo-N,N'-dimethylisophthalamide]
solubility ([1]; water, depending upon the method employed, read-out: aqueous solubility): 27 to 80 mg/mL (≈ 34.2 to 101 mM) | LD50 Intracerebral (Mice) (Swiss Albino mice [3]): > 899 mg. I/kg. body wt. | LD50 Intracisternal (Rats) (Sprague-Dawley rats): > 266 mg. I/kg. body wt.

CNC(=O)c1c(I)c(NC(=O)N[C@@H](CO)[C@@H](O)[C@H](O)[C@H](O)CO)c(I)c(N(CCO)C(C)=O)c1I [Example VI, 3-{3-[1-(D-gluco-2-deoxy-1,3,4,5,6-pentahydroxyhexyl)]ureido}-5-[N-(2-hydroxyethyl)acetamido]-2,4,6-triiodo-N-methylbenzamide]
solubility ([1]; water, read-out: water solubility): ~780 mg/mL (≈ 933 mM)
